Measurements published in US9980937B2, “Therapeutic agent for Alzheimer's disease” (NAGASAKI UNIVERSITY, priority 2014, dated 2018).
Blank lines part the entries; values can stand above or below the compound they belong to.

Key:
neprilysin [1] = test: neprilysin-dependent neutral endopeptidase activity of APP-H4 cell extract (suc-AAF-AMC coupled enzyme assay); assay type: cell-based, human; conditions: APP-H4 cells, 48 hr, 1 or 10 μM; activity without polyphenol derivative = 1 (FIG. 1)
Protocol: (§1) APP-H4 cells were seeded to a 6-well plate at a density of 12×10^4 cells/1.5 mL, and cultured in Dulbecco's modified Eagle's medium (DMEM; Nacalai Tesque, Inc.) added with 10% fetal bovine serum (FBS; Equitech-Bio, Inc. [Kerrville, Tex., USA]), 100 U/mL penicillin+100 μg/mL streptomycin (Nacalai Tesque, Inc.). After culture for 24 hr, the culture supernatant was removed, and the medium was exchanged with a medium with reduced use amount of serum, Opti-MEM (registered trade mark) I Reduced Serum Medium (Life Technologies Corporation, Carlsbad, Calif., USA) (1 mL). A polyphenol derivative (1 μL) to be the test target was added, and the mixture was further cultured for 48 hr. After culture, the culture supernatant was recovered in a tube (total amount 1.5 mL), centrifuged at 4,000×g/4° C./10 min to remove dead cells, and the supernatant (800 μL) was placed in a new tube. The culture supernatant was preserved at −80° C. before sample preparation. The cells were washed twice with ice-cooled phosphate-buffered saline (PBS). Thereafter, the cells were scraped from the plate using a Cell Scraper. The cells were recovered in a 1.5 mL tube and centrifuged at 4,000×g/4° C./10 min. The supernatant was removed and the cells were preserved at −80° C. before sample preparation. The frozen cells were lysed in 40 μL of solubilization buffer containing 1% Triton X-100, protease inhibitor cocktail Complete™ EDTA-free (Roche) and 50 mM Tris-HCl on ice. The cell lysate was incubated on ice for 60 min, centrifuged at 4° C., 21,900×g for 30 min, and the supernatant was recovered and used as a solubilization cell extract.
The total protein concentration of the cell extract was determined by a BCA protein assay kit (Takara) by using BSA as the standard solution. The final concentration of the test compound used was 1 μM or 10 μM, and quantification was performed using each solvent as a control.
The neprilysin-dependent neutral endopeptidase activity of the cell extract was measured fluorescence quantitatively by an indirect coupled enzyme assay method. […] Total 50 μL of the reaction mixture was prepared such that the final concentration was substrate 0.1 mM suc-AAF-AMC, protein in the cell extract 1-6 μg, 100 mM MES buffer (pH 6.5). With the time of addition of the substrate as the start of the reaction, the mixture was reacted at 37° C. for 1 hr, and Phe-AMC was cut out from the substrate by neutral endopeptidase. […] The mixture was reacted at 37° C. for 30 min, and Phe (phenylalanine) residue was cut out from Phe-AMC by aminopeptidase.

[2] = coefficient of partition for octanol, in accordance with Fudouji et al. 2009; cited from earlier work
ADAM17 = test: α-secretase mRNA expression, ADAM17 (real-time PCR); assay type: cell-based, human; conditions: control = 1
Protocol: (§2) In the same manner as in the above-mentioned 2, total RNA was prepared using a High Pure RNA Isolation kit (Roche 11828665001) from the cells to be the test target cells, which were treated with each polyphenol derivative and cultured, and subjected to a reverse transcription reaction using PrimeScript RT-PCR kit (TaKaRaRR014A) to give a sample (cDNA) for real-time PCR.
(§3) The prepared sample, Premix Ex taq (Perfect Real Time) (TaKaRaRR039A) and a probe, and a primer were mixed in a tube (TaKaRa SC910A), and real-time PCR reaction (initial denaturation: 95° C. 30 sec, PCR reaction: 95° C. 5 sec, 60° C. 20 sec, 40 times) was performed by Smart Cycler II System machine (TaKaRa).
(§4) The 5′-terminus of the probe was modified by a fluorescent substance FAM, and the 3′-terminus was modified by a quencher substance TAMRA, respectively.

[3] = test system: neprilysin, α-secretase, β-secretase; test: overall conclusion on modulation of neprilysin, α-secretase and β-secretase (Example 1); assay type: cell-based, human; conditions: conclusion from the results of Example 1
Protocol: as §1
The neprilysin-dependent neutral endopeptidase activity of the cell extract was measured fluorescence quantitatively by an indirect coupled enzyme assay method. As a neutral endopeptidase substrate, succinyl-Ala-Ala-Phe-7-amino-4-methylcoumarin (suc-AAF-AMC) (1-1315; Bachem) was used. Total 50 μL of the reaction mixture was prepared such that the final concentration was substrate 0.1 mM suc-AAF-AMC, protein in the cell extract 1-6 μg, 100 mM MES buffer (pH 6.5). With the time of addition of the substrate as the start of the reaction, the mixture was reacted at 37° C. for 1 hr, and Phe-AMC was cut out from the substrate by neutral endopeptidase. Then, to the reaction mixture was added a solution (2.5 μL) containing 0.1 mg (0.4 unit equivalent)/mL leucine aminopeptidase (L-5006; Sigma-Aldrich), and 0.2 mM phosphoramidon (4082; Peptide Institute). The mixture was reacted at 37° C. for 30 min, and Phe (phenylalanine) residue was cut out from Phe-AMC by aminopeptidase. Using microplate spectrometer Infinite M-1000 (Tecan), the fluorescence intensity of free AMC was measured by measuring at an excitation wavelength 390 nm and a fluorescence wavelength 460 nm on a half-well size 96-well black plate (#3695; Corning). The neprilysin-dependent neutral endopeptidase activity was determined based on a decrease in the activity due to 10 μM thiorphan (T-6031; Sigma-Aldrich) as a neprilysin specific inhibitor.
After thawing from −80° C., the aforementioned culture supernatant was mixed with 6×SDS-polyacrylamide gel electrophoresis (SDS-PAGE) sample buffer (Nacalai Tesque, Inc.) at a ratio of 5:1, boiled for 5 min, and used as a detection sample of APPsα which is a metabolite of APP by α-secretase and APPsβ which is a metabolite of APP by β-secretase in western blot analysis. […]

[4] = test system: neprilysin mRNA (MME gene); test: neprilysin mRNA expression (quantitative real-time PCR, MME gene); assay type: cell-based, human; conditions: standardized to GAPDH mRNA (FIG. 3)
Protocol: as §2, §3, §4

β-secretase = target: T1, β-secretase (Homo sapiens, UniProt P56817); test: β-secretase activity (APPsβ, western blot); assay type: cell-based; conditions: APP-H4 culture supernatant, APPsβ (FIG. 2)
T1 construct: endogenous in cells; host or cells: APP-H4 cells (culture supernatant analysed)
T1 sequence (P56817 46-501): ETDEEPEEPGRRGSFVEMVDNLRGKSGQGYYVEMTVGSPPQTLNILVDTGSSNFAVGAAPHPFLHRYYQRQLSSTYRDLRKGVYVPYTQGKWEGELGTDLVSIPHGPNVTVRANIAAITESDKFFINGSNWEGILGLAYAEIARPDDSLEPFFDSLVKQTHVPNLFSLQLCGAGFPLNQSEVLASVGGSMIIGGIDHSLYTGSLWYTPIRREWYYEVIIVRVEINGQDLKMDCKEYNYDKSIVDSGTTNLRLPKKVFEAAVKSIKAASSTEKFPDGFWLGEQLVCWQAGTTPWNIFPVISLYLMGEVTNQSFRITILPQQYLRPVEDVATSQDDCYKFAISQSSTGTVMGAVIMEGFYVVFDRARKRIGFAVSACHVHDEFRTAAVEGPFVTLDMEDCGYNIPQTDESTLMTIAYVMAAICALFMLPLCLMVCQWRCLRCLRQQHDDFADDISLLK
Protocol: as §1, with “extract. […]” for “extract.”
(§5) The signal intensity of the band was quantified using a densitometer LAS-4000 (GE Healthcare UK Ltd.) and image analysis software Science Laboratory 2003 Image Gauge Version 4.23 (Fujifilm Holdings Corporation, Tokyo, Japan). […]

APP = test: extracellularly secreted APPsα/APPsβ ratio (western blot); assay type: cell-based, human; conditions: APP-H4 culture supernatant (FIG. 2)
Protocol: as §1
After thawing from −80° C., the aforementioned culture supernatant was mixed with 6×SDS-polyacrylamide gel electrophoresis (SDS-PAGE) sample buffer (Nacalai Tesque, Inc.) at a ratio of 5:1, boiled for 5 min, and used as a detection sample of APPsα which is a metabolite of APP by α-secretase and APPsβ which is a metabolite of APP by β-secretase in western blot analysis.
The PVDF membrane after transfer was washed with a wash buffer and immersed in a blocking buffer to prevent non-specific binding of the primary antibody, and a blocking reaction was performed at room temperature for 1 hr. Thereafter, it was reacted with a primary antibody (APPsα, anti-human APPsα mouse monoclonal antibody (2B3, Immuno-Biological Laboratories Co., Ltd., Gunma, Japan) (3 μg/mL); APPsβ, anti-APPsβ, rabbit polyclonal antibody, 1 μg/mL) to perform an antigen-antibody-reaction at 4° C. for not less than 16 hr. […]
as §5

neprilysin [5] = test: neprilysin expression amount at protein level (western blot, APP-H4 cells); assay type: cell-based, human; conditions: 48 hr, standardized to β-actin (FIG. 2)
Protocol: as §1
The aforementioned cell extract was mixed with 6×SDS-polyacrylamide gel electrophoresis (SDS-PAGE) sample buffer (Nacalai Tesque, Inc.) at a ratio of 5:1, boiled for 5 min, and used as a detection sample of neprilysin, α-secretase and β-secretase proteins.
The PVDF membrane after transfer was washed with a wash buffer and immersed in a blocking buffer to prevent non-specific binding of the primary antibody, and a blocking reaction was performed at room temperature for 1 hr. […] The PVDF membrane after the reaction was washed with the wash buffer and the secondary antibody (horseradish peroxidase conjugated anti-mouse or anti-rabbit IgG (1:10,000; GE Healthcare UK Ltd.)) corresponding to the primary antibody was reacted at room temperature for 1 hr and detection was carried out using the ECL Select Western Blotting Detection Kit (GE Healthcare UK Ltd.).
The signal intensity of the band was quantified using a densitometer LAS-4000 (GE Healthcare UK Ltd.) and image analysis software Science Laboratory 2003 Image Gauge Version 4.23 (Fujifilm Holdings Corporation, Tokyo, Japan).

Compound: Amentoflavone
neprilysin activity potentiating action (neprilysin [1]): about 2 times that of control

Compound: O=C(O[C@@H]1Cc2c(O)cc(O)cc2O[C@@H]1c1cc(O)c(O)c(O)c1)c1cc(O)c(O)c(O)c1 [EGCg, (−)-epigallocatechin-3-O-gallate, reference compound]
neprilysin activity potentiating action (neprilysin [1]): about 1.5 times that of control | log P octanol [2]: 1.00

modulator class (neprilysin / α-secretase / β-secretase) [3]: triple modulator
Compound: O=C(O)CCCCCCCCCCCCCCOC1CCc2c(c3c(c4c2O[C@H](c2cc(O)c(O)c(O)c2)[C@H](OC(=O)c2cc(O)c(O)c(O)c2)C4)OC(OCCCCCCCCCCCCCCC(=O)O)CC3)O1 (some centres unmarked) [NUP-E15-2]
neprilysin activity potentiating action (neprilysin [1]): about 1.5 times that of control | ADAM17 expression at the mRNA level (ADAM17): about 3.7 times that of control | expression level of neprilysin at the mRNA level [4]: about 7.9 times that of control

Compound: CC12CC[C@@H](C(C)(C)O)[C@H](C1)c1c(cc(O)c3c1O[C@H](c1cc(O)c(O)c(O)c1)[C@H](OC(=O)c1cc(O)c(O)c(O)c1)C3)O2 [NUP-6]
log P octanol [2]: 1.85

Compound: C=CCc1ccc(O)c(-c2ccc(O)c(CC=C)c2)c1 [Honokiol]
neprilysin activity potentiating action (neprilysin [1]): about 1.3 times that of control

Compound: O=c1cc(-c2ccccc2)oc2cc(O)c(O)c(O)c12 [Baicalein]
neprilysin activity potentiating action (neprilysin [1]): about 1.7 times that of control

β-secretase activity, remaining relative to control (β-secretase): about 41 % that of control | modulator class (neprilysin / α-secretase / β-secretase) [3]: double modulator
Compound: CC1CCC2C(C1)c1c(c3c(c4c1OC(C)(C)C1CCC(C)CC41)O[C@H](c1cc(O)c(O)c(O)c1)[C@H](OC(=O)c1cc(O)c(O)c(O)c1)C3)OC2(C)C (some centres unmarked) [NUP-11]
neprilysin activity potentiating action (neprilysin [1]): about 3.5 times that of control | ADAM17 expression at the mRNA level (ADAM17): about 2.4 times that of control | extracellularly secreted APPsα/APPsβ ratio (APP): about 2.0 times that of control | log P octanol [2]: >10 | expression amount of neprilysin at the protein level (neprilysin [5]): about 3.3 times that of control | expression level of neprilysin at the mRNA level [4]: about 4 times that of control

Compound: O=c1cc(-c2ccc(O)cc2)oc2cc(O)cc(O)c12 [Apigenin]
neprilysin activity potentiating action (neprilysin [1]): about 1.5 times that of control

β-secretase activity, remaining relative to control (β-secretase): about 37 % that of control | modulator class (neprilysin / α-secretase / β-secretase) [3]: double modulator
Compound: C/C(=C\Cc1c(O)cc2c(c1O)C[C@@H](OC(=O)c1cc(O)c(O)c(O)c1)[C@@H](c1cc(O)c(O)c(O)c1)O2)CCCC(C)CCCC(C)CCCC(C)C (some centres unmarked) [NUP-19]
neprilysin activity potentiating action (neprilysin [1]): about 2.7 times that of control | ADAM17 expression at the mRNA level (ADAM17): about 1.3 times that of control | extracellularly secreted APPsα/APPsβ ratio (APP): about 1.4 times that of control | log P octanol [2]: >10 | expression amount of neprilysin at the protein level (neprilysin [5]): about 3.2 times that of control | expression level of neprilysin at the mRNA level [4]: about 2.1 times that of control

Compound: O=c1c(O)c(-c2ccc(O)cc2)oc2cc(O)cc(O)c12 [Kaempferol]
neprilysin activity potentiating action (neprilysin [1]): about 1.5 times that of control

Compound: O=c1cc(-c2ccccc2)oc2cc(O)cc(O)c12 [Chrysin]
neprilysin activity potentiating action (neprilysin [1]): about 1.4 times that of control
